The text below walks through data of patent publication US20080187508A1, “Treatment of Golmerular Basement Membrane Disease Involving Matrix Metalloproteinase-12” (BOYS TOWN NATIONAL RESEARCH HOSPITAL, priority 2004, published 2008).

In experiment [1] the test system is Alport mice. Nature of the experiment: transmission electron microscopy of glomerular basement membrane of treated Alport mice. The format is in vivo, mouse. How it is done:
The Alport mouse model has been described (Cosgrove et al. (1996) Genes Dev. 10, 2981-2992). The control mice used were normal for both collagen α3(IV) alleles, and are a product of double heterozygote crosses for the Alport mutation. The use of animals in this study was performed in accordance with an approved institutional IACUC protocol. Extreme care was taken to minimize pain and discomfort suffered by the mice. MMP inhibitors were administered between 4 and 7 weeks of age. All drugs were freshly prepared prior to administration. BAY 129566 was emulsified in suspension with 0.5% carboxymethyl cellulose and 4 mg given once a day by oral gavage. MMI-270 was solubilized in 0.9% saline and administered by I.P. injection (50 μg/g body weight) once a day. Transmission electron microscopy was performed as previously described (Cosgrove et al., 1996, Genes Dev. 10, 2981-2992). Ultrastructural localization studies of type IV collagen were performed essentially as previously described (Bhattacharya et al., 2002). Kidneys from 7-week-old control and Alport mice were fixed by heart perfusion with 2% paraformaldehyde in PBS, and post-fixed in this same solution overnight. Ultrathin (70 nm) sections were reacted for 4 hours at room temperature with goat anti-collagen IV antibodies (Southern Biotechnology, Birmingham, Ala.). After six 10 minute washes in PBS, specimen were reacted for 2 hours at room temperature with 10 nanometers (nm) gold-conjugated anti-rabbit antibodies (Vector Laboratories, Burlingame, Calif.). Grids were washed as before, air-dried, counterstained with uranyl acetate, and examined using transmission electron microscopy. Propagermanium (3-oxygemylpropinic acid polymer, Sanwa Kagaku Kenkyusho Co., Nagoya, Japan) was administered orally (10 milligrams per kilogram (mg/kg) in 1% gelatin) by gavage once daily starting at 5 weeks of age, and kidneys harvested at 7 weeks of age. Three animals per group, Alport mice and control litter mates, gavaged with drug or vehicle only, were analyzed. […] Proteolytic degradation of the GBM in Alport syndrome might underlie the progressive irregular GBM damage and podocyte foot process effacement. Type IV collagen from Alport kidneys is more susceptible to proteolytic degradation in vitro than type IV collagen from healthy kidneys (Kalluri et al. (1997) J. Clin. Invest. 99, 2470-2478, presumably owing to the reduced number of interchain disulfide crosslinks (Gunwar et al. (1998) J. Biol. Chem. 273, 8767-8775).

Experiment [2] concerns MMP-12 mRNA. Description: real time PCR of glomerular RNA of propagermanium-treated Alport mice: MMP-12. As to conditions: propagermanium 10 mg/kg oral gavage once daily from 5 to 7 weeks of age, 50-fold in vehicle-treated. Format: in vivo, mouse. The procedure: (§1) Isolation of mouse glomeruli was performed as described by Takemoto et al., (Am. J. Pathol. (2002)161, 799-805). The procedure involves cardiac perfusion with deactivated […] Dynabeads (Dynal Biotech, Oslo, Sweden), followed by collagenase digestion and glomerular isolation using a magnet.
(§2) Total RNA samples were treated with RNase-free DNase I (Gibco BRL, USA) at 37° C. for 1 hour (hr) in order to remove any contaminating genomic DNA before reverse transcription (RT). Total RNA was reverse-transcribed by using Superscript II (GIBCO BRL) with oligo dt primers. To ensure that the quantitation of MMP transcripts in serial samples was not affected by differences in the amount of RNA added, integrity of RNA, or sample to sample differences in levels of RT-PCR inhibition, an internal control reaction targeting the GAPDH gene was run in multiplex with each reaction, and used to normalize results for MMP transcripts. […] The data were analyzed using comparative threshold cycle (CT) method. The mRNA quantity for the control is expressed as 1× sample and all other quantities from Alport samples are expressed as fold difference relative to the controls. No measurable fluorescence signal was detected in repeated RT-PCR runs in which the reverse transcriptase was omitted from the reaction mixture. […]
Background: Quantitative PCR measures a nucleic acid by following its amplification.

Experiment [3] has as its system MMP-3 mRNA. Description: real time PCR of glomerular RNA of propagermanium-treated Alport mice: MMP-3. The format is in vivo, mouse. As to conditions: propagermanium 10 mg/kg oral gavage once daily from 5 to 7 weeks of age. The procedure: as §1, §2
Experiment [4] relates to MMP-9 mRNA. Description: real time PCR of glomerular RNA of propagermanium-treated Alport mice: MMP-9. Format: in vivo, mouse. As to conditions: propagermanium 10 mg/kg oral gavage once daily from 5 to 7 weeks of age. The procedure: as §1, §2
Experiment [5] deals with Alport mice. Nature of the experiment: immunofluorescence of kidney cryosections (fibronectin, collagen IV α1/α2) of treated Alport mice. As to conditions: Alport mice treated from 4 to 7 weeks of age; MMI-270 50 μg/g I.P., BAY 129566 4 mg once daily oral gavage; fibronectin and collagen IV α1/α2 immunostaining. The format is in vivo, mouse. The procedure:
The Alport mouse model has been described (Cosgrove et al. (1996) Genes Dev. 10, 2981-2992). The control mice used were normal for both collagen α3(IV) alleles, and are a product of double heterozygote crosses for the Alport mutation. The use of animals in this study was performed in accordance with an approved institutional IACUC protocol. Extreme care was taken to minimize pain and discomfort suffered by the mice. MMP inhibitors were administered between 4 and 7 weeks of age. All drugs were freshly prepared prior to administration. BAY 129566 was emulsified in suspension with 0.5% carboxymethyl cellulose and 4 mg given once a day by oral gavage. MMI-270 was solubilized in 0.9% saline and administered by I.P. injection (50 μg/g body weight) once a day.
Cryosections ([…]) of kidneys from 7-week-old normal and Alport mice were air dried, fixed by immersion in ice cold acetone, and subjected to immunohistochemical staining analysis using antibodies specific for MMP-3 (rabbit polyclonal anti-human MMP-3, a gift from Dr. Z. Gunza-Smith, Miami, Fla., used at 1:200 dilution), MMP-12 (rabbit polyclonal antibody against mouse MMP-12, kindly provided by Yoshikatsu Kaneko, used at 1:100 dilution), type IV collagen α1/2 chains (rabbit polyclonal against mouse type IV collagen, Biodesign, Inc., Saco, Me., used at 1:200 dilution), fibronectin (rabbit polyclonal against human plasma fibronectin, Sigma Chemical Co., St. Louis, Mo., used at 1:200). Anti-CD31 antibodies were directly conjugated to Alexa 568 (Molecular Probes, Eugene Oreg.) and purchased from Immunotech (Marseille, France). […] Images were collected using a Cytovision Ultra Image analysis system interfaced with an Olympus BH-2 fluorescence microscope.
To assess the effect of these two compounds on Alport renal disease progression, Alport mice were administered either MMI 270 or BAY 129566 from 4 to 7 weeks of age. […] Cryosections were analyzed by immunofluorescence microscopy to assess for the degree of glomerular and tubulointerstitial damage using antibodies specific for collagen IV α1 and α2 chains, and fibronectin.

Experiment [6] deals with T1, MMP-2 (Homo sapiens, UniProt P08253).
T1 sequence (P08253 110-660): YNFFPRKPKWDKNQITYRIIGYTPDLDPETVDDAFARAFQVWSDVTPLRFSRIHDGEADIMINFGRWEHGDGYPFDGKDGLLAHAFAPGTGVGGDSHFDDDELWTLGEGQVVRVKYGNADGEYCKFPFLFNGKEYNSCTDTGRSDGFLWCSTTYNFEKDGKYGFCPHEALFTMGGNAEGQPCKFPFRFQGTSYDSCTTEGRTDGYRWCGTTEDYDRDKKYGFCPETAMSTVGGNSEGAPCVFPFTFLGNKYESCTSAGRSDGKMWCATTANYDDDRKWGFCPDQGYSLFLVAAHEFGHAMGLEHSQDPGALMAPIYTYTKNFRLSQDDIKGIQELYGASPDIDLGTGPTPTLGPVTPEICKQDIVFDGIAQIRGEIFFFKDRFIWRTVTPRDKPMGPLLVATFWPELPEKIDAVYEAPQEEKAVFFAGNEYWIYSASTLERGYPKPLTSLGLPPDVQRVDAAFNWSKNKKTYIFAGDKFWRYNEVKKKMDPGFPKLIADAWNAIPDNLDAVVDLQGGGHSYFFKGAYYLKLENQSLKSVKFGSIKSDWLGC
As to conditions: listed as BAY 129566; cited from earlier work.

Experiment [7] has as its target MMP-3 (Homo sapiens, UniProt P08254). As to conditions: listed as BAY 129566; cited from earlier work.
For experiment [8], the target named is MMP-9 (Homo sapiens, UniProt P14780). As to conditions: listed as BAY 129566; cited from earlier work.
In experiment [9] the target is MMP-12 (Homo sapiens, UniProt P39900). As to conditions: listed as BAY-12-9566; cited from earlier work.
In experiment [10] the target is MMP-14 (Homo sapiens, UniProt P50281). As to conditions: listed as BAY 129566; cited from earlier work.
Experiment [11] relates to Alport mice. As to conditions: cited from earlier work.

“Also recorded” adds a separate entry of the source.

Chain of MMP-9 (P14780 94-707, species assumed): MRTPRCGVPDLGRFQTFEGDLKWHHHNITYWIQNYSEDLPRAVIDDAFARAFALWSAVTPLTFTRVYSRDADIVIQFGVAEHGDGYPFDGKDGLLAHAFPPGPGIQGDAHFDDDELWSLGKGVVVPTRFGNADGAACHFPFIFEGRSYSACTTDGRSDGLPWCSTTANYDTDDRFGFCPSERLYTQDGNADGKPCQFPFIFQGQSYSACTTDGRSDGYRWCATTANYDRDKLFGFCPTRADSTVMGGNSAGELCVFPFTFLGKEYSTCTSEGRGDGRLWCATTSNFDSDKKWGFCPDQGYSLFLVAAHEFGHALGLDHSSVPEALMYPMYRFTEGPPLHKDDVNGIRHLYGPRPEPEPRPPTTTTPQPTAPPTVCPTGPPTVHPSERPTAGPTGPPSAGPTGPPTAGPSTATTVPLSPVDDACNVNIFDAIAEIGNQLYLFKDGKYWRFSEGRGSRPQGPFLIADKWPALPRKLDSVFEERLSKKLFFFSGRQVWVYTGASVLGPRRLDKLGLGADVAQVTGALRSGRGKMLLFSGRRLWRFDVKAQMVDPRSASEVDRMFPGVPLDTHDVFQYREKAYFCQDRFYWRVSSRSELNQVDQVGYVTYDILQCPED
Chain of MMP-12 (P39900 106-470, species assumed): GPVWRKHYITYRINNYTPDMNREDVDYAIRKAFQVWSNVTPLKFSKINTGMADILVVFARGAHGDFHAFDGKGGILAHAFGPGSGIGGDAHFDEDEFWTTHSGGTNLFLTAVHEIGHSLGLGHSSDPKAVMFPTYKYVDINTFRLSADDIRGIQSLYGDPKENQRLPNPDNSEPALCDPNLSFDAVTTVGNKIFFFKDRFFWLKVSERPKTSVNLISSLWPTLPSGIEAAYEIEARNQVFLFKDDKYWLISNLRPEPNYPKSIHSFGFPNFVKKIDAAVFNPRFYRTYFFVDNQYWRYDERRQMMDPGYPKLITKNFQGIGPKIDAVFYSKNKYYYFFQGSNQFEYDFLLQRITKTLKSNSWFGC
Chain of MMP-3 (P08254 100-477, species assumed): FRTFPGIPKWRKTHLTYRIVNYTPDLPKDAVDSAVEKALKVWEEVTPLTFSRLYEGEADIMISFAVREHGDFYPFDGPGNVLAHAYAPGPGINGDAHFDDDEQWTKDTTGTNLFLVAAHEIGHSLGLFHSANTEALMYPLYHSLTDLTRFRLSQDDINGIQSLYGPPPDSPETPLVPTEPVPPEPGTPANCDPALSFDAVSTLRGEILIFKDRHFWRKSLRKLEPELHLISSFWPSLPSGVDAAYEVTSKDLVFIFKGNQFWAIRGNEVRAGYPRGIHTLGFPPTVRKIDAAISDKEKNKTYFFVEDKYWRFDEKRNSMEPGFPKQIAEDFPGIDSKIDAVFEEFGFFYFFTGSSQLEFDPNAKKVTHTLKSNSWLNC

“3-oxygermylpropionic acid [propagermanium]”: the “glomerular basement membrane architecture” value in experiment [1] (Alport mice, propagermanium 10 mg/kg oral gavage once daily from 5 to 7 weeks of age, transmission electron microscopy) is recorded as “restores normal GBM architecture”. Further, the “MMP-12 mRNA induction in glomeruli relative to normal controls” value in [2] came to 6 fold. In experiment [3], the “induction of MMP-3 mRNA in glomeruli” value was “unaffected”. Further, the “induction of MMP-9 mRNA in glomeruli” value in [4] was “unaffected”.
As to `O=C(C[C@H](CSc1ccccc1)C(=O)O)c1ccc(-c2ccc(Cl)cc2)cc1` [BAY 12-9566], the “glomerular and tubulointerstitial (renal) disease progression” value in [5] was “same degree of renal pathology as untreated Alport mice; also recorded: no obvious effect; also recorded: did not significantly affect; also recorded: no improvement”. In addition, the “glomerular basement membrane architecture” value in experiment [1] (Alport mice treated with MMP inhibitor from 4 to 7 weeks of age, electron microscopy) is “no effect”. In addition, the “MMP inhibitory effect, MMP-2” value in experiment [6] is recorded as “inhibits”. The “MMP inhibitory effect, MMP-3” value in experiment [7] is recorded as “inhibits”. Besides, the “MMP inhibitory effect, MMP-9” value in experiment [8] is given as “inhibits”. Moreover, in experiment [9], the “MMP inhibitory effect, MMP-12” value was “does not”. Moreover, the “MMP inhibitory effect, MMP-14” value in experiment [10] was “inhibits”.
On to `CCOC(=O)[C@H](CCc1ccccc1)N[C@@H](C)C(=O)N1[C@H](C(=O)O)C[C@@H]2CCC[C@@H]21` [Ramipril], for which the lifespan result in experiment [11] is “doubles”.
